From PubChem BioAssay AID463199 (Broad Institute, 2010) come the findings set out here.

Active and inactive are the calls of the source.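 How the source made its calls: active means AC50, the dose giving half-maximal effect, exceeds a fixed cutoff for a compound that rescues yeast growth under heat; inactive means the rest, inconclusive results apart.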

As a reminder, the AC50 is the concentration at which the activity in the assay is half-maximal.

This assay concerns S. cerevisiae Burl-1 ts mutant growth, BacTiter-Glo, 38.5C 24 h. The assay is described as follows: growth induction of Burl-1 ts yeast mutant, dose response, counter-screen for SUMOylation pathway inhibitor project, whole organism, S. cerevisiae, luminescence (AID 463199). In general terms: A counterscreen serves to expose hits that act by an unwanted route or on another target.

As for `COc1ccc(-c2cc(CC3(C(=O)O)CCN(C(=O)OC(C)(C)C)CC3)on2)c(OC)c1`, the AC50 was > 42 µM (inactive).

Regarding `CCCCC1=CC2=CC(=O)C(C)(OC(=O)CC)C(=O)C2=CN1CCCOC(C)C` (centres undefined), the AC50 is > 42 µM (inactive).

For the compound `OC(COc1ccccc1)Cn1c2ccccc2c2ccccc21` (centres undefined), the AC50 is > 42 µM (inactive).

`Cc1ccc(NC(=O)CN2CCN(CCN=CC3=C(O)CC(C)(C)CC3=O)CC2)cc1`: the AC50 is > 42 µM (inactive).

With `Cc1cccc(N(Cc2ccccc2)C(=O)CSC(C)C(=O)Nc2cc(C)on2)c1` (centres undefined), the AC50 was > 42 µM (inactive).

Regarding `CCCN1C(=O)c2[nH]nc(-c3cc(Cl)c(C)cc3O)c2C1c1ccc(O)c(OC)c1` (centres undefined), the AC50 was > 42 µM (inactive).

Consider `COc1ccc(CC(=O)NCCN2CCOCC2)cc1`, for which the AC50 is > 42 µM (inactive).

For `O=C(OCCCN=C1NS(=O)(=O)c2ccccc21)c1cccs1`, the AC50 was > 42 µM (inactive).

Take `CCOC(=O)c1[nH]c2ccc(Br)cc2c1NC(=O)CCN1CCOCC1`: the AC50 was > 42 µM (inactive).

For `O=C(Nc1ccc(F)cc1)c1ccc(CSc2ccccc2)o1`, the AC50 was > 42 µM (inactive).

As to `CCCCn1c(=O)[nH]c(=O)c2c1nc(COc1ccc(C#N)cc1)n2CCC`, the AC50 is > 42 µM (inactive).

For `O=C(Nc1ccc2nc(-c3ccc4nc[nH]c4c3)[nH]c2c1)c1cccs1`, the AC50 was > 42 µM (inactive).

Take `CC(C)C(=O)Nc1ccc(NC(=S)NC(=O)c2ccccc2F)cc1`: the AC50 is > 42 µM (inactive).

Take `Nc1cccc2c1C(=O)N(c1ccccc1)C2=O`: the AC50 is > 42 µM (inactive).

Consider `CC(=O)N/C(=C\c1ccccc1)C(=O)OCC(=O)c1ccccc1`, for which the AC50 was > 42 µM (inactive).

Turning to `COc1cc(/C=N/n2cnnc2)ccc1OCc1ccccc1`, the AC50 was > 42 µM (inactive).

As to `Cc1ccc(NC(=O)CC2CS(=O)(=O)CC2CC(=O)Nc2ccc(C)c(C)c2)cc1C` (centres undefined), the AC50 is 19.2 µM.

In the case of `FC(F)(F)c1nc2ccccc2n2c(-c3ccc(Cl)cc3Cl)nnc12`, the AC50 is > 42 µM (inactive).

In the case of `O=C(CCSc1ccccc1)Nc1ncccn1`, the AC50 is > 42 µM (inactive).

For `CC(C)C[C@@H](CO)N1CCN(Cc2cccnc2)CCC1=O`, the AC50 is > 42 µM (inactive).

On to `CC(=O)c1cccc(N2C(=NC(=O)C3CCCCC3)SC3CS(=O)(=O)CC32)c1` (centres undefined), for which the AC50 is > 42 µM (inactive).

`CCOc1ccc(CN(C)C(C)C(=O)NCc2ccccc2)cc1` (centres undefined): the AC50 was > 42 µM (inactive).

As to `COc1ccc(S(=O)(=O)Cc2ccc(C(=O)NCc3cccs3)o2)cc1`, the AC50 was > 42 µM (inactive).

For the compound `Cc1ccnc(NC(=O)CNC(=O)c2ccc(Br)o2)c1`, the AC50 is > 42 µM (inactive).

For the compound `O=C(NCC1CCN(Cc2ccccc2Cl)CC1)Nc1ccccc1F`, the AC50 was > 42 µM (inactive).

On to `CCn1cc(C(=O)N(C)c2ccc(OC)cc2OC)c2cc(OC)c(OC)cc2c1=O`, for which the AC50 is > 42 µM (inactive).

In the case of `O=C(Nc1ccccn1)c1ccc(CN(c2ccccc2)S(=O)(=O)c2ccccc2)cc1`, the AC50 is > 42 µM (inactive).

On to `CS(=O)(=O)N1CCC(Oc2ccccc2C(=O)N2CCNC(=O)C2)CC1`, for which the AC50 was > 42 µM (inactive).

For `C/C=C(/C)C(=O)OC1c2c(ccc3ccc(=O)oc23)OC(C)(C)C1OC(=O)/C(C)=C\C` (centres undefined), the AC50 was > 42 µM (inactive).

In the case of `COc1ccc(-c2csc(Nc3cc(C)ccn3)n2)cc1C`, the AC50 was > 42 µM (inactive).

`N/C(=N\NC(=O)c1sccc1OCc1ccc(Cl)cc1Cl)c1ccccn1`: the AC50 is > 42 µM (inactive).

Regarding `Cc1n[nH]c(C)c1S(=O)(=O)N(CC(=O)NC1CCCC1)c1ccc(C(C)C)cc1`, the AC50 was 38.7 µM.

On to `Nc1ccnc(=O)[nH]1`, for which the AC50 is > 42 µM (inactive).

Take `COc1ccc2c(c1)OC[C@H]1[C@H]2N2C(=O)c3ccccc3NC(=O)[C@@]2(C)[C@H]1c1ccccc1`: the AC50 was > 42 µM (inactive).

For the compound `CC(C)c1ccc(-c2cc(C(=O)N3CCOCC3)c3cc(Br)ccc3n2)cc1`, the AC50 is > 42 µM (inactive).

`Cc1cc2nc(CCl)cc(=O)n2[nH]1`: the AC50 was > 42 µM (inactive).

As to `CCCCn1c(/C=N/Nc2nc3ccccc3[nH]2)nc2ccccc21`, the AC50 was > 42 µM (inactive).

For `O=C(CSc1nc(-c2ccccc2)cc(=O)[nH]1)Nc1ccc(Br)cc1`, the AC50 was > 42 µM (inactive).

For the compound `COc1ccccc1-n1c(O)c(/C=C2\C=Nc3ccccc32)c(=O)[nH]c1=O`, the AC50 is > 42 µM (inactive).

As to `CCCc1ccc(S(=O)(=O)NCCc2ccncc2)cc1`, the AC50 is > 42 µM (inactive).

For the compound `CC(=O)c1ccc(Nc2cc(C)nc3ccccc23)cc1`, the AC50 is > 42 µM (inactive).

For the compound `CN(c1cccnc1)c1ncnc2[nH]ncc12`, the AC50 was > 42 µM (inactive).

`Cc1ccccc1-n1c(-c2cccnc2)n[nH]c1=S`: the AC50 was > 42 µM (inactive).

As to `CN1/C(=C\C(=O)COC(=O)c2ccc([N+](=O)[O-])o2)C(C)(C)c2ccccc21`, the AC50 is > 42 µM (inactive).

As to `CCOC(=O)C1(CCOc2ccccc2)CCN(Cc2cccc(OC)c2O)CC1`, the AC50 was > 42 µM (inactive).

Take `Cc1ccc(-c2noc(C3CCCN(S(=O)(=O)c4ccc5ccccc5c4)C3)n2)o1` (centres undefined): the AC50 was > 42 µM (inactive).

Turning to `NS(=O)(=O)c1cccc(NC(=O)c2cccnc2Oc2ccccc2)c1`, the AC50 was > 42 µM (inactive).

In the case of `Cc1cc(-c2ccccc2)n(-c2ccc(C(=O)NC(C)C)cc2)n1`, the AC50 is > 42 µM (inactive).

Take `Cc1cc(C)c2c(=O)[nH]cnc2n1`: the AC50 was > 42 µM (inactive).

For the compound `Cc1cc(S(=O)(=O)N2CCCC(N3CCOCC3)C2)c(C)cc1Cl` (centres undefined), the AC50 was > 42 µM (inactive).

With `CC(=O)N1CCC2(CC1)CC(=O)c1cc(OCC(=O)N3CCCC3)ccc1O2`, the AC50 was > 42 µM (inactive).

As for `CCCCC(=O)Nc1cc(OC)c(NC(=O)C2CCCCC2)cc1OC`, the AC50 was > 42 µM (inactive).

Regarding `Cc1ccc(S(=O)(=O)n2cccc2C)cc1`, the AC50 was > 42 µM (inactive).

In the case of `C=C(C)C(=O)Nc1cccnc1Oc1ccc(F)cc1F`, the AC50 was > 42 µM (inactive).

`COc1cc(S(=O)(=O)N2CCN(c3ccccc3)CC2)ccc1F`: the AC50 was > 42 µM (inactive).

Take `O=c1[nH]cnc2cc(Cl)ccc12`: the half-maximal activity concentration (AC50) was 4 µM.

Consider `CCOC(=O)C1(Cc2cccc(OC)c2)CCCN(S(=O)(=O)c2cccnc2)C1` (centres undefined), for which the AC50 was > 42 µM (inactive).

For the compound `CCN(CC)C1CCN(C(=O)c2cc(COc3ccc(-n4cncn4)cc3)on2)C1` (centres undefined), the AC50 was > 42 µM (inactive).

As to `CCn1cc(CCCC(=O)NCc2ccccc2OC)c2ccccc21`, the AC50 is > 42 µM (inactive).

As to `O=C1NC(c2ccccc2)C(C(=O)c2cccs2)C(O)(C(F)(F)F)N1` (centres undefined), the AC50 is > 42 µM (inactive).

Turning to `O=C1COc2ccc(C(=O)COC(=O)c3ncc(Cl)c(Cl)c3Cl)cc2N1`, the AC50 is > 42 µM (inactive).

Regarding `O=C(CSc1nc(O)cc(=O)n1-c1ccccc1)NC1CCCCC1`, the AC50 was > 42 µM (inactive).

Consider `COc1ccc(-c2csc(NC(=O)C3CSC4(C)CCC(=O)N34)n2)cc1` (centres undefined), for which the AC50 was > 42 µM (inactive).

`Cc1cc(C)n2c(SCC(C)C)nnc2n1`: the AC50 was > 42 µM (inactive).

As to `O=C1CSC(c2ccc(F)c(F)c2)N1c1ccccc1F` (centres undefined), the AC50 is > 42 µM (inactive).

Consider `Cc1cccc(C)c1NC(=O)C(Cl)C(=O)c1ccccc1` (centres undefined), for which the AC50 is > 42 µM (inactive).

Consider `CCOc1ccc(N(C(C)C(=O)NC(C)CC)S(C)(=O)=O)cc1` (centres undefined), for which the AC50 was > 42 µM (inactive).

As to `CC1=C(C(=O)OCc2ccccc2)C(c2cccc(F)c2)NC(=O)N1` (centres undefined), the AC50 was > 42 µM (inactive).

Consider `COC(=O)CNC(=O)CSc1ccccn1`, for which the AC50 is > 42 µM (inactive).

On to `O=C(O)c1c(C(=O)O)c(-c2ccc(F)cc2)n2c1CCC2`, for which the AC50 is > 42 µM (inactive).

As for `CCOc1ccc(C(=O)NCC2OCCc3ccccc32)cc1` (centres undefined), the AC50 was > 42 µM (inactive).

Turning to `O=C(NNC(=O)c1csc(N2CCOCC2)n1)c1ccc(Cl)nc1`, the AC50 was > 42 µM (inactive).

With `COC(=O)CSc1ccc(S(=O)(=O)N2CCCCCC2)cc1[N+](=O)[O-]`, the AC50 is > 42 µM (inactive).

Take `COc1ccc(CN(CC(=O)NCc2ccco2)C(=O)CCC(=O)Nc2nccs2)cc1`: the AC50 is > 42 µM (inactive).

As for `Nc1nnc(CC(=O)N2CCCCC2)s1`, the AC50 is > 42 µM (inactive).

On to `O=C(CN1CCc2ccccc21)NN1CC(=O)N(c2ccc(Cl)cc2)CC1=O`, for which the AC50 was > 42 µM (inactive).

Take `Cn1c(Cn2nnc3ccccc32)nnc1SCC(=O)c1ccc(F)cc1`: the AC50 is > 42 µM (inactive).

For `O=C(O)CCC(=O)N1N=C(c2c(-c3ccccc3)c3cc(Cl)ccc3[nH]c2=O)CC1c1ccco1` (centres undefined), the AC50 is > 42 µM (inactive).

As to `O=S(=O)(CCN1CCCCC1)Oc1ccc(Cl)cc1Cl`, the AC50 was > 42 µM (inactive).

In the case of `Cc1cnc(=O)[nH]c1SCC(=O)c1ccc(F)cc1`, the AC50 was > 42 µM (inactive).

`Cc1cc(=O)oc2ccc(OC(=O)CC(C)C)cc12`: the AC50 is > 42 µM (inactive).

Regarding `COC(=O)c1sc(NC(=O)c2ccc(Cn3cc(Cl)cn3)o2)c(C#N)c1C`, the AC50 is > 42 µM (inactive).

For the compound `Clc1cc(Br)ccc1OCCOCCN1CCOCC1`, the AC50 is > 42 µM (inactive).

`CCOc1ccccc1CN1CCNC(=O)C1CC(=O)NCCN1CCOC1=O` (centres undefined): the AC50 was > 42 µM (inactive).

Take `COc1cc(S(=O)(=O)NC2CCCC2)c(OC)cc1C`: the AC50 is > 42 µM (inactive).

For the compound `CC1CCCCN1C(=O)C(Cc1ccccc1)N1C(=O)C2CCCCC2C1=O` (centres undefined), the AC50 was > 42 µM (inactive).

Consider `CCOC(=O)CSc1nc2ccccc2c(=O)n1CC(C)C`, for which the AC50 was > 42 µM (inactive).

Take `O=C(c1ccco1)N1CCN(C(=O)C2Cc3ccccc3CN2S(=O)(=O)c2ccc(F)cc2)CC1` (centres undefined): the AC50 was > 42 µM (inactive).

On to `CCN1C(=O)c2cccc3c(S(=O)(=O)Nc4ccc(OC)cc4OC)ccc1c23`, for which the AC50 was > 42 µM (inactive).
